Experimental data taken from ChEMBL document CHEMBL1201862, “PubChem BioAssay data set” (2004).
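Where inhibition never reached the appropriate level, the endpoint shown equals the highest concentration tested. Otherwise, values were interpolated linearly from a five-concentration, 48-hour dose response in 96-well plates. GI50 marks 50% less growth.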 Calls of active or inactive are those of the source. No stated cut-off is given here; in the data, active = GI50 up to about 1.1 µM and inactive = higher.

What was measured:
Assay in all cases: NCI tumour cell line growth inhibition, 48 h
DMS-114 = system: DMS-114
DMS-273 = system: DMS-273
KM-20L2 = system: KM-20L2
LXFL 529 = system: LXFL 529
M19-MEL = system: M19-MEL
SNB-78 = system: SNB-78
XF498 = system: XF498
HOP-18 = system: HOP-18
RXF 631 = system: RXF 631

SMILES	GI50 (DMS-114)	GI50 (DMS-273)	GI50 (KM-20L2)	GI50 (LXFL 529)	GI50 (M19-MEL)	GI50 (SNB-78)	GI50 (XF498)	GI50 (HOP-18)	GI50 (RXF 631)
Cc1cc(NCCCCCCCCNc2cc(C)nc3cc(N(C)C)ccc23)c2ccc(N(C)C)cc2n1	1.39 µM (inactive)	2.74 µM (inactive)	4.29 µM (inactive)	1.69 µM (inactive)	2.78 µM (inactive)	5.47 µM (inactive)	1.98 µM (inactive)	–	–
COc1cc2c(cc1OC(=O)CC(C)O)C1C(OC2=O)C(OC(C)=O)C=C2CCN(C)[C@H]21 (some centres undefined)	–	47.1 µM (inactive)	> 100 µM (inactive)	82.4 µM (inactive)	78.9 µM (inactive)	20.7 µM (inactive)	20.1 µM (inactive)	26.9 µM (inactive)	31 µM (inactive)
CCCCCCCCCCCCCCCCCCCCCC(=O)Nc1ccn(C2OC(CO)C(O)C2O)c(=O)n1 (centres undefined)	1.04 µM (active)	35.6 µM (inactive)	> 100 µM (inactive)	> 100 µM (inactive)	8.17 µM (inactive)	> 100 µM (inactive)	> 100 µM (inactive)	> 100 µM (inactive)	–
O=C1CCCC2COc3ccc(O)c1c32 (centres undefined)	> 100 µM (inactive)	> 100 µM (inactive)	> 100 µM (inactive)	–	> 100 µM (inactive)	> 100 µM (inactive)	–	–	> 100 µM (inactive)
Clc1cccc2c1OCC1C(c3ccccc3)=NN(c3ccccc3)C21 (centres undefined)	47.6 µM (inactive)	45.8 µM (inactive)	> 100 µM (inactive)	67.1 µM (inactive)	> 100 µM (inactive)	72.9 µM (inactive)	> 100 µM (inactive)	24 µM (inactive)	> 100 µM (inactive)
C[N+](C)(C)CC(CC(=O)[O-])C1CC1 (centres undefined)	> 100 µM (inactive)	> 100 µM (inactive)	> 100 µM (inactive)	> 100 µM (inactive)	> 100 µM (inactive)	–	> 100 µM (inactive)	> 100 µM (inactive)	> 100 µM (inactive)
O=C(Cc1nc2c3c(ccc2nc1O)C(=O)c1ccccc1C3=O)C(=O)Nc1ccccc1[N+](=O)[O-]	–	–	19.6 µM (inactive)	4.24 µM (inactive)	22.2 µM (inactive)	4.22 µM (inactive)	12.6 µM (inactive)	–	–
FC(F)(F)c1cccc(C2SCc3nc4ccccc4n32)c1 (centres undefined)	18.5 µM (inactive)	41.9 µM (inactive)	–	27.8 µM (inactive)	> 100 µM (inactive)	> 100 µM (inactive)	–	–	–
O=c1oc2c(O)c(O)cc3c(=O)oc4c(O)c(O)cc1c4c23 [ELLAGIC ACID]	33.4 µM (inactive)	> 10 µM (inactive)	94.4 µM (inactive)	37 µM (inactive)	> 10 µM (inactive)	> 10 µM (inactive)	35.2 µM (inactive)	> 10 µM (inactive)	> 10 µM (inactive)
NNC(=O)C(=O)N/N=C1\CCC(=O)CC1C(=O)CCC(=O)Nc1ccc(Cl)cc1 (centres undefined)	–	> 100 µM (inactive)	> 100 µM (inactive)	> 100 µM (inactive)	> 100 µM (inactive)	> 100 µM (inactive)	–	95.5 µM (inactive)	–
COc1cc(C(O)C(=O)c2cnc3cc([N+](=O)[O-])ccc3n2)ccc1O (centres undefined)	49.9 µM (inactive)	> 100 µM (inactive)	85.5 µM (inactive)	74.1 µM (inactive)	> 100 µM (inactive)	–	> 100 µM (inactive)	–	> 100 µM (inactive)
C/C(=C1/N=C(c2cc([N+](=O)[O-])ccc2Cl)N(c2ccc(Br)cc2)C1=O)c1ccc(N(CCC#N)CCC#N)cc1C	12.3 µM (inactive)	7.23 µM (inactive)	16.1 µM (inactive)	8.11 µM (inactive)	29.1 µM (inactive)	40.6 µM (inactive)	4.71 µM (inactive)	76.9 µM (inactive)	> 100 µM (inactive)
NC(=S)N1N=C2c3ccccc3CCC[C@H]2[C@@H]1c1ccccc1	3.98 µM (inactive)	0.721 µM (active)	2.01 µM (inactive)	3.89 µM (inactive)	2.81 µM (inactive)	5.77 µM (inactive)	4.55 µM (inactive)	–	–
Cc1ccc(NC(=O)C(=O)CC(=O)C2CCOC2=O)c(C)c1 (centres undefined)	> 100 µM (inactive)	> 100 µM (inactive)	> 100 µM (inactive)	> 100 µM (inactive)	–	> 100 µM (inactive)	> 100 µM (inactive)	> 100 µM (inactive)	> 100 µM (inactive)
COc1cc(/C=C\c2ccc(Cl)cc2)cc(OC)c1OC	0.394 µM (active)	0.149 µM (active)	0.105 µM (active)	0.292 µM (active)	0.389 µM (active)	0.162 µM (active)	0.274 µM (active)	> 100 µM (inactive)	0.118 µM (active)
CCCCCC(O)(CCCCC)CCCCCCCCC1=C(O)C(=O)c2ccc(=O)[nH]c2C1=O	4.37 µM (inactive)	3.59 µM (inactive)	13.1 µM (inactive)	3.94 µM (inactive)	3.88 µM (inactive)	21.2 µM (inactive)	3.6 µM (inactive)	–	10.3 µM (inactive)
